Assay results reported in patent US20020028836A1, “Potassium channel openers” (priority 2000, published 2002).
Read-outs that look alike come from different tables or passages of the source.

Assays:
[1] = system: primary cultured guinea-pig urinary bladder (GPB) cells; experiment: Membrane hyperpolarization (MHP) assay, DiBAC(4)3 / FLIPR; type: cell-based; details: for EC50: concentration that elicits 50% of the maximal response for the test sample
Summary of the method: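 Primary smooth-muscle cells from male guinea-pig bladder, grown to confluence, loaded 30 min at 37° C with 5 μM DiBAC(4)3 in HEPES buffer pH 7.4. Fluorescence drop on FLIPR followed 25 min after compound; steady-state hyperpolarization normalized to 10 μM P1075 (100%), EC50 from four-parameter fit of five concentrations.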

[2] = system: bladder contractions in male CD rats; experiment: In vivo bladder efficacy protocol (isovolumetric contractions model); parameters: species or system rat; details: iv, cumulative doses; dose reducing area under the curve of bladder contractions by 30% relative to control; urethane-anesthetized rats
Description: The utility of compounds of the present invention for the treatment of urinary incontinence, bladder overactivity, and bladder instability is illustrated by the ability of compounds of the present invention to inhibit bladder contractions in vivo. The following method is illustrative of the in vivo bladder efficacy of compounds of the present invention.
Male CD rats (400-450 g) were anesthetized with urethane (0.6 g/kg ip+0.6 g/kg sc). The left femoral vein was cannulated with polyethylene (PE-50) tubing for the administration of test compound. A third polyethylene catheter (PE-60) was inserted 3-4 mm into the apex of the bladder dome and secured using a 5-0 silk purse string suture. The bladder was emptied via this catheter and additionally by applying slight manual pressure on the lower abdomen. The urinary catheter was connected using a Y-tube connector to both a pressure transducer and a syringe pump. The urethra was then ligated using 4-0 silk suture and the bladder was slowly filled using a constant infusion of room temperature saline at the rate of 0.1 mL/min until spontaneous rhythmic contractions were evident (1.0-1.3 mL). After the contractions stabilized to a consistent pattern, bladder pressure was monitored for 20 minutes before and after a dose of the vehicle (equal parts of β-cyclodextrin stock solution (100 g β-cyclodextrin dissolved in 200 mL) and sterile water) alone. Then three doses of a test compound were administered cumulatively intravenous (iv) at 20 minute intervals. Each dosing solution (1 mL/kg) was warmed to body temperature before dosing and was infused over 3 minutes to minimize dosing artifacts on the bladder pressure trace. Data were averaged over the last 10 minutes of each period and presented as percent change from control. Area under the curve of the bladder contractions was determined from the respective waveforms using a Modular Instruments, Inc. computerized data acquisition system and averaged over the last ten minutes of each twenty minute period. The doses required to reduce the area under the curve of the bladder contractions by 30% (AUC ED30%) relative to control were estimated using a customized Excel spreadsheet.

[3] = system: tissue strips obtained from Landrace pig bladders; experiment: Functional potassium channel opening activity in isolated bladder strips (field-stimulated twitch); details: for Index: ED50 for P1075 divided by ED50 for the test agonist in a given tissue, averaged; for EC50: amount of agent necessary to cause 50% of the agent's maximal response, read-out: ED50 (the source's name); for Efficacy (% P1075) / Emax: maximal efficacy relative to P1075, field stimulation 0.05 Hz, 0.5 ms, 20 volts
Summary of the method: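 Mucosa-free female Landrace pig bladder strips in Krebs Ringer bicarbonate (pH 7.4, 37° C., 0.004 mM propranolol), 1.0 g preload, field-stimulated at 0.05 Hz, 0.5 ms, 20 V for twitch. Cumulative concentration-response curves; maximal efficacy as % of P1075, ED50 fitted, potency index = P1075 ED50/test ED50 per tissue, averaged.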

[4] = Cavia porcellus, maximal steady-state hyperpolarization, normalized to response with 10 μM P1075 (100%)

Row | EC50 [1] [nM] | EC50 ([3]; Sus scrofa) [nM] | EC50 ([1]; Cavia porcellus) [nM] | EC50 [3] [nM] | SMILES | Emax [1, 4] [%] | AUC EC30 [2] [µmol/kg] | Index [3] | Efficacy (% P1075) [3] [% P1075] | Emax ([3]; Sus scrofa) [%] | Maximal Response (% P1075) ([1]; maximal steady-state hyperpolarization, normalized to response with 10 μM P1075 (100%))
1 | 570 | 17000 | – | – | Cc1ccc(C(=O)NC(NC(=NC#N)Nc2cccnc2)C(C)(C)C)cc1 (stereo not drawn) [Example 51, N-(1-{[(cyanoimino)(3-pyridinylamino)methyl]amino}-2,2-dimethylpropyl)-4-methylbenzamide] | 88 | 0.28 | 0.006 | 100 | – | –
2 | – | 5000 | 40 | – | Cc1ccc(C(=O)NC(NC(=NC#N)Nc2ccccc2)C(Cl)(Cl)Cl)cc1 (stereo not drawn) [Example 46, N-(1-{[anilino(cyanoimino)methyl]amino}-2,2,2-trichloroethyl)-4-methylbenzamide] | 105 | 0.70 | 0.015 | – | 84 | –
3 | – | 19000 | 270 | – | CC(C)(C)C(NC(=O)c1ccc(Cl)cc1)NC(=NC#N)Nc1cccnc1 (stereo not drawn) [Example 52, 4-chloro-N-(1-{[(cyanoimino)(3-pyridinylamino)methyl]amino}-2,2-dimethylpropyl)benzamide] | 72 | 0.78 | 0.012 | – | 72 | –
4 | 2900 | – | – | 830 | C=CCC(C)(C)C(NC(=O)c1ccc(Cl)cc1)NC(=NC#N)Nc1cccnc1 (single isomer, unassigned; (+)) [Example 91, (+) 4-chloro-N-(1-{[(cyanoimino)(3-pyridinylamino)methyl]amino}-2,2-dimethyl-4-pentenyl)benzamide] | – | >10 | 0.360 | 46 | – | 68
